These results are taken from publication PMC6274106, “Evaluation and Comparison of the Inhibition Effect of Astragaloside IV and Aglycone Cycloastragenol on Various UDP-Glucuronosyltransferase (UGT) Isoforms” (Molecules, 2016).

Structures are written as SMILES.

Common to all, as to type: biochemical
In test [1] the target is T1, UGT2B7 (Homo sapiens, UniProt P16662).
T1 construct: recombinant human UGT supersomes (baculovirus-infected insect cells)
T1 sequence (P16662 24-529): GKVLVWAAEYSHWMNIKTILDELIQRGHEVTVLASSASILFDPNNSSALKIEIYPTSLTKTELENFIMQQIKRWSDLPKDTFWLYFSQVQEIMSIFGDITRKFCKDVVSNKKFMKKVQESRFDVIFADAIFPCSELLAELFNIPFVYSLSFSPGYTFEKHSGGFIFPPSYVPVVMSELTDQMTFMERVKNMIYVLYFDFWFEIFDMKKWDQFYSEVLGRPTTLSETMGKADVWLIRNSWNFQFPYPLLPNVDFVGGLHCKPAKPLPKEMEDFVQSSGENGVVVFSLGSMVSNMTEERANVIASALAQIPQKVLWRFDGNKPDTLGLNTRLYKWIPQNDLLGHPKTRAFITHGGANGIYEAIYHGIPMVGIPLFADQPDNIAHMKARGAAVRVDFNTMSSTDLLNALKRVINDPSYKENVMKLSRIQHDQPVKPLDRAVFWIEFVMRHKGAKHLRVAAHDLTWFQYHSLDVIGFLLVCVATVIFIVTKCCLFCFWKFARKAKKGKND
The test is described as follows: 4-MU glucuronidation screen, […] inhibition at […].

A further test concerns the target T2, UGT1A3 (Homo sapiens, UniProt P35503).
T2 construct: recombinant human UGT supersomes (baculovirus-infected insect cells)
T2 sequence (P35503 29-534): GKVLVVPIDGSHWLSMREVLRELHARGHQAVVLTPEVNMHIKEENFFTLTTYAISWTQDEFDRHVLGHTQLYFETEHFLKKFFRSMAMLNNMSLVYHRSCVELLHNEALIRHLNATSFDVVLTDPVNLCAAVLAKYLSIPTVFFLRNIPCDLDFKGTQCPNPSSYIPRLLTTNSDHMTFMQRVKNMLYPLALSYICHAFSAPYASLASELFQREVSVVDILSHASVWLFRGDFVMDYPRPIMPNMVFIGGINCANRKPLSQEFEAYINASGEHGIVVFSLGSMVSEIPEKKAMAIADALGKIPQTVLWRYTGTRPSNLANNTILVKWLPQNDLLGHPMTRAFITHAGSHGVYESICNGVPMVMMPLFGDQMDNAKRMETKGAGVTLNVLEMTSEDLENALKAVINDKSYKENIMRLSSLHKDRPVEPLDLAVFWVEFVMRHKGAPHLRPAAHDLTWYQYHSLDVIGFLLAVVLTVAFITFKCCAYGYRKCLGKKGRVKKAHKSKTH
Nature of the test: 4-MU glucuronidation screen, […] inhibition at […].

Test [2] concerns the target T1, UGT2B7. Nature of the test: 4-MU glucuronidation by recombinant UGT supersomes, UPLC-UV; Dixon and Lineweaver-Burk plots (IC50 […]).
A further test addresses T3, UGT1A8 (Homo sapiens, UniProt Q9HAW9).
T3 construct: recombinant human UGT supersomes (baculovirus-infected insect cells)
T3 sequence (Q9HAW9 26-530): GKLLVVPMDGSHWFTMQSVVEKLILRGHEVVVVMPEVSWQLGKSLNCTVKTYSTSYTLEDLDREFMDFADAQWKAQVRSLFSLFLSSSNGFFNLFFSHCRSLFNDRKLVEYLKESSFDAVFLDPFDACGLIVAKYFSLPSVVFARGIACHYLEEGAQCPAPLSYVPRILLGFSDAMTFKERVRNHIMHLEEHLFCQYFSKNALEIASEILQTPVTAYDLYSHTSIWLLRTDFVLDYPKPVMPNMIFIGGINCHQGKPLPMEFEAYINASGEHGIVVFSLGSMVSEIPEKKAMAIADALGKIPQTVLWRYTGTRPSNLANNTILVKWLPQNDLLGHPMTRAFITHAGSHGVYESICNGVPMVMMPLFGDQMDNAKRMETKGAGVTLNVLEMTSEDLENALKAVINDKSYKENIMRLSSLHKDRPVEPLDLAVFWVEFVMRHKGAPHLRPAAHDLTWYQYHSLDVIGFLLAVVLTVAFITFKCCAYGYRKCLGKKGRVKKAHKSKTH
The test is described as above.

A further test concerns the target T4, UGT1A1 (Homo sapiens, UniProt P22309).
T4 construct: recombinant human UGT supersomes (baculovirus-infected insect cells)
T4 sequence (P22309 26-533): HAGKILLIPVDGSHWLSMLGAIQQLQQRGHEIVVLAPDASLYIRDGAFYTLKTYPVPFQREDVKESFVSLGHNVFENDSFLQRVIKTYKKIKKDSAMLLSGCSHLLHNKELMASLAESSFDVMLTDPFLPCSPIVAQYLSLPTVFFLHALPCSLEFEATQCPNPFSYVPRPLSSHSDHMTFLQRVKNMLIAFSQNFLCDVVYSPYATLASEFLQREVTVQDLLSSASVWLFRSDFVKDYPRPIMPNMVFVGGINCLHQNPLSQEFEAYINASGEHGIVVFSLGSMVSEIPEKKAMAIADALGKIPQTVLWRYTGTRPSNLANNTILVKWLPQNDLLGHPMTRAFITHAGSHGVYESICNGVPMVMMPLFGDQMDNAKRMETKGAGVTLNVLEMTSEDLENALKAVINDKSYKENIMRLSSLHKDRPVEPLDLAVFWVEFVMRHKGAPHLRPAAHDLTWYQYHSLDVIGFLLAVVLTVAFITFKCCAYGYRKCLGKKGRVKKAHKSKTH
Nature of the test: 4-MU glucuronidation screen, […] inhibition at […].

Consider `CC(C)(O)[C@@H]1CC[C@](C)([C@H]2[C@@H](O)C[C@@]3(C)[C@@H]4C[C@H](O[C@@H]5O[C@H](CO)[C@@H](O)[C@H](O)[C@H]5O)[C@H]5C(C)(C)[C@@H](O[C@@H]6OC[C@@H](O)[C@H](O)[C@H]6O)CC[C@@]56C[C@@]46CC[C@]23C)O1` [AST, astragaloside IV], for which the inhibition at 100 µM against UGT2B7 [1] was determined as 51.5%.

In the case of `CC(C)(O)[C@@H]1CC[C@](C)([C@H]2[C@@H](O)C[C@@]3(C)[C@@H]4C[C@H](O)[C@H]5C(C)(C)[C@@H](O)CC[C@@]56C[C@@]46CC[C@]23C)O1` [CAG, cycloastragenol], the figures for the inhibition at 100 µM against UGT1A3 and on UGT1A1 were 75.2% and 50.2%, respectively. In addition, the inhibition constant (Ki) on UGT2B7 [2] was 21 µM; on UGT1A8 it was 34 nM.

For orientation: inhibition means the drop in the measured response relative to a control, in per cent. A low value points to a response near the control. By Ki is commonly meant a measure of affinity in units of concentration, obtained from inhibition or displacement.
